# From ChEMBL document CHEMBL5584294, “Adpressins A-G: Oligophenalenone Dimers from Talaromyces adpressus” (J Nat Prod, 2024)
# What was measured:
# [1] = system: T-cell; assay: Immunosuppressive activity in BALB/c mouse T-lymphocytes assessed as inhibition of ConA-induced cell proliferation pretreated with Concanavalin A for 24 hrs followed by compound addition and measured after 48 hrs by CCK-8 assay; type: functional, cell-based
# [2] = system: B-cell line; assay: Immunosuppressive activity in BALB/c mouse B-lymphocytes assessed as inhibition of LPS-induced cell proliferation pretreated with LPS for 24 hrs followed by compound addition and measured after 48 hrs by CCK-8 assay; type: functional, cell-based
# [3] = system: T-cell; assay: Immunosuppressive activity in ConA-induced BALB/c mouse T-lymphocytes assessed as Treg cell subsets by measuring CD25negativeFOXP3positive cells at 5 uM pretreated with Concanavalin A for 24 hrs followed by compound addition and measured after 48 hrs by flow cytometry analysis (reference value: 0.2%); type: functional
# [4] = system: T-cell; assay: Immunosuppressive activity in BALB/c mouse T-lymphocytes assessed as reduction in ConA-induced CD4 subpopulation by measuring CD3positiveCD4negative cells at 5 uM pretreated with Concanavalin A for 24 hrs followed by compound addition and measured after 48 hrs by flow cytometry analysis (reference value: 12.2%); type: functional; parameters: scale not given: the % may be the effect or the level left
# [5] = system: T-cell; assay: Immunosuppressive activity in BALB/c mouse T-lymphocytes assessed as reduction in ConA-induced CD4 subpopulation by measuring CD3positiveCD4positive cells at 10 uM pretreated with Concanavalin A for 24 hrs followed by compound addition and measured after 48 hrs by flow cytometry analysis (reference value: 87.8%); type: functional; parameters: scale not given: the % may be the effect or the level left
# [6] = system: T-cell; assay: Immunosuppressive activity in BALB/c mouse T-lymphocytes assessed as reduction in ConA-induced CD8 subpopulation by measuring CD3positiveCD8positive cells at 5 uM pretreated with Concanavalin A for 24 hrs followed by compound addition and measured after 48 hrs by flow cytometry analysis (reference value: 29.1%); type: functional; parameters: scale not given: the % may be the effect or the level left
# [7] = system: T-cell; assay: Immunosuppressive activity in BALB/c mouse T-lymphocytes assessed as reduction in ConA-induced CD8 subpopulation by measuring CD3positiveCD8negative cells at 5 uM pretreated with Concanavalin A for 24 hrs followed by compound addition and measured after 48 hrs by flow cytometry analysis (reference value: 70.9%); type: functional; parameters: scale not given: the % may be the effect or the level left
# [8] = system: T-cell; assay: Immunosuppressive activity in ConA-induced BALB/c mouse T-lymphocytes assessed as Treg cell subsets by measuring CD25negativeFOXP3negative cells at 5 uM pretreated with Concanavalin A for 24 hrs followed by compound addition and measured after 48 hrs by flow cytometry analysis (reference value: 27.2%); type: functional
# [9] = system: T-cell; assay: Immunosuppressive activity in BALB/c mouse T-lymphocytes assessed as reduction in ConA-induced CD8 subpopulation by measuring CD3negativeCD8positive cells at 5 uM pretreated with Concanavalin A for 24 hrs followed by compound addition and measured after 48 hrs by flow cytometry analysis (reference value: 0%); type: functional; parameters: scale not given: the % may be the effect or the level left
# [10] = system: T-cell; assay: Immunosuppressive activity in BALB/c mouse T-lymphocytes assessed as reduction in ConA-induced CD4 subpopulation by measuring CD3negativeCD4negative cells at 5 uM pretreated with Concanavalin A for 24 hrs followed by compound addition and measured after 48 hrs by flow cytometry analysis (reference value: 0%); type: functional; parameters: scale not given: the % may be the effect or the level left
# [11] = system: T-cell; assay: Immunosuppressive activity in BALB/c mouse T-lymphocytes assessed as reduction in ConA-induced CD8 subpopulation by measuring CD3positiveCD8positive cells at 10 uM pretreated with Concanavalin A for 24 hrs followed by compound addition and measured after 48 hrs by flow cytometry analysis (reference value: 29.1%); type: functional; parameters: scale not given: the % may be the effect or the level left
# [12] = system: T-cell; assay: Immunosuppressive activity in BALB/c mouse T-lymphocytes assessed as reduction in ConA-induced CD4 subpopulation by measuring CD3negativeCD4positive cells at 5 uM pretreated with Concanavalin A for 24 hrs followed by compound addition and measured after 48 hrs by flow cytometry analysis (reference value: 0%); type: functional; parameters: scale not given: the % may be the effect or the level left
# [13] = system: T-cell; assay: Immunosuppressive activity in BALB/c mouse T-lymphocytes assessed as reduction in ConA-induced CD8 subpopulation by measuring CD3negativeCD8positive cells at 10 uM pretreated with Concanavalin A for 24 hrs followed by compound addition and measured after 48 hrs by flow cytometry analysis (reference value: 0%); type: functional; parameters: scale not given: the % may be the effect or the level left
# [14] = system: T-cell; assay: Immunosuppressive activity in BALB/c mouse T-lymphocytes assessed as reduction in ConA-induced CD8 subpopulation by measuring CD3positiveCD8negative cells at 10 uM pretreated with Concanavalin A for 24 hrs followed by compound addition and measured after 48 hrs by flow cytometry analysis (reference value: 70.9%); type: functional; parameters: scale not given: the % may be the effect or the level left
# [15] = system: T-cell; assay: Immunosuppressive activity in BALB/c mouse T-lymphocytes assessed as reduction in ConA-induced CD8 subpopulation by measuring CD3negativeCD8negative cells at 5 uM pretreated with Concanavalin A for 24 hrs followed by compound addition and measured after 48 hrs by flow cytometry analysis (reference value: 0%); type: functional; parameters: scale not given: the % may be the effect or the level left
# [16] = system: T-cell; assay: Immunosuppressive activity in BALB/c mouse T-lymphocytes assessed as reduction in ConA-induced CD4 subpopulation by measuring CD3negativeCD4negative cells at 10 uM pretreated with Concanavalin A for 24 hrs followed by compound addition and measured after 48 hrs by flow cytometry analysis (reference value: 0%); type: functional; parameters: scale not given: the % may be the effect or the level left
# [17] = system: T-cell; assay: Immunosuppressive activity in BALB/c mouse T-lymphocytes assessed as reduction in ConA-induced CD4 subpopulation by measuring CD3positiveCD4positive cells at 5 uM pretreated with Concanavalin A for 24 hrs followed by compound addition and measured after 48 hrs by flow cytometry analysis (reference value: 87.8%); type: functional; parameters: scale not given: the % may be the effect or the level left
# [18] = system: T-cell; assay: Immunosuppressive activity in BALB/c mouse T-lymphocytes assessed as reduction in ConA-induced CD8 subpopulation by measuring CD3negativeCD8negative cells at 10 uM pretreated with Concanavalin A for 24 hrs followed by compound addition and measured after 48 hrs by flow cytometry analysis (reference value: 0%); type: functional; parameters: scale not given: the % may be the effect or the level left
# [19] = system: T-cell; assay: Immunosuppressive activity in ConA-induced BALB/c mouse T-lymphocytes assessed as Treg cell subsets by measuring CD25positiveFOXP3negative cells at 5 uM pretreated with Concanavalin A for 24 hrs followed by compound addition and measured after 48 hrs by flow cytometry analysis (reference value: 66.9%); type: functional
# [20] = system: T-cell; assay: Immunosuppressive activity in ConA-induced BALB/c mouse T-lymphocytes assessed as Treg cell subsets by measuring CD25negativeFOXP3negative cells at 10 uM pretreated with Concanavalin A for 24 hrs followed by compound addition and measured after 48 hrs by flow cytometry analysis (reference value: 27.2%); type: functional
# [21] = system: T-cell; assay: Immunosuppressive activity in ConA-induced BALB/c mouse T-lymphocytes assessed as Treg cell subsets by measuring CD25positiveFOXP3negative cells at 10 uM pretreated with Concanavalin A for 24 hrs followed by compound addition and measured after 48 hrs by flow cytometry analysis (reference value: 66.9%); type: functional
# [22] = system: T-cell; assay: Immunosuppressive activity in ConA-induced BALB/c mouse T-lymphocytes assessed as Treg cell subsets by measuring CD25positiveFOXP3positive cells at 5 uM pretreated with Concanavalin A for 24 hrs followed by compound addition and measured after 48 hrs by flow cytometry analysis (reference value: 5.7%); type: functional
# [23] = system: T-cell; assay: Immunosuppressive activity in ConA-induced BALB/c mouse T-lymphocytes assessed as Treg cell subsets by measuring CD25positiveFOXP3positive cells at 10 uM pretreated with Concanavalin A for 24 hrs followed by compound addition and measured after 48 hrs by flow cytometry analysis (reference value: 5.7%); type: functional
# [24] = system: T-cell; assay: Immunosuppressive activity in BALB/c mouse T-lymphocytes assessed as reduction in ConA-induced CD4 subpopulation by measuring CD3negativeCD4positive cells at 10 uM pretreated with Concanavalin A for 24 hrs followed by compound addition and measured after 48 hrs by flow cytometry analysis (reference value: 0%); type: functional; parameters: scale not given: the % may be the effect or the level left
# [25] = system: T-cell; assay: Immunosuppressive activity in BALB/c mouse T-lymphocytes assessed as reduction in ConA-induced CD4 subpopulation by measuring CD3positiveCD4negative cells at 10 uM pretreated with Concanavalin A for 24 hrs followed by compound addition and measured after 48 hrs by flow cytometry analysis (reference value: 12.2%); type: functional; parameters: scale not given: the % may be the effect or the level left
# [26] = system: T-cell; assay: Immunosuppressive activity in ConA-induced BALB/c mouse T-lymphocytes assessed as Treg cell subsets by measuring CD25negativeFOXP3positive cells at 10 uM pretreated with Concanavalin A for 24 hrs followed by compound addition and measured after 48 hrs by flow cytometry analysis (reference value: 0.2%); type: functional
compound,measurement,setting,value
CC(=O)O[C@H]1[C@@H]2C(=O)c3c(C)cc(O)c4c3[C@@]1(COC4=O)C1=C2c2c(C)cc(O)c3c2[C@@](O)(COC3=O)C1=O,IC50,[1],> 40 µM
same,IC50,[2],> 40 µM
CC(=O)O[C@H]1[C@@H]2C(=O)c3c(C)cc(O)c4c3[C@@]1(COC4=O)c1c(O)c3c4c(c(O)cc(C)c4c12)C(=O)O3,IC50,[1],> 40 µM
same,IC50,[2],> 40 µM
COC(=O)C[C@H]1OC(=O)c2c(O)cc(C)c3c2C1=C(O)C1[C@]24COC(=O)c5c(O)cc(C)c(c52)C(=O)[C@@H]([C@@H]4OC(C)=O)[C@]31OC (stereo not given in full),IC50,[1],> 40 µM
same,IC50,[2],> 40 µM
Cc1cc(O)c2c3c1C(=O)[C@@H]1c4c(c5oc(=O)ccc5c5cc(O)cc(C)c45)[C@@]3(COC2=O)[C@H]1O,IC50,[1],> 40 µM
same,IC50,[2],> 40 µM
COC(=O)C[C@@H]1OC(=O)c2c(O)cc(C)c3c4c(c(O)c1c23)[C@]12COC(=O)c3c(O)cc(C)c(c31)C(=O)[C@H]4[C@@H]2O,IC50,[1],> 40 µM
same,IC50,[2],> 40 µM
CC1(C)C2CCC1(CS(=O)(=O)O)C(=O)C2 (stereo not given),IC50,[1],< 0.04 µM
same,IC50,[2],< 0.04 µM
COC(=O)C[C@H]1OC(=O)c2c(O)cc(C)c3c4c(c(O)c1c23)[C@]12COC(=O)c3c(O)cc(C)c(c31)C(=O)[C@H]4[C@@H]2O,IC50,[1],> 40 µM
same,IC50,[2],> 40 µM
COC(=O)C[C@H]1OC(=O)c2c(O)cc(C)c3c4c(c(O)c1c23)[C@]12COC(=O)c3c(O)cc(C)c(c31)C(=O)[C@H]4[C@@H]2OC(C)=O,IC50,[1],> 40 µM
same,IC50,[2],> 40 µM
Cc1cc(O)c2c3c1C1=C(C(=O)C3C3CCCN3C2=O)[C@]23COC(=O)c4c(O)cc(C)c(c42)C(=O)[C@H]1[C@@H]3O (stereo not given in full),IC50,[1],> 40 µM
same,IC50,[2],> 40 µM
Cc1cc(O)c2c3c1C(=O)[C@@H]1c4c(c(O)cc5cc(O)cc(C)c45)[C@@]3(COC2=O)[C@H]1O,IC50,[1],> 40 µM
same,IC50,[2],> 40 µM
Cc1cc(O)c2c3c1C(=O)[C@@H]1c4c(c(O)c5c6c(c(O)cc(C)c46)C(=O)O5)[C@@]3(COC2=O)[C@H]1O,IC50,[1],> 40 µM
same,IC50,[2],> 40 µM
Cc1cc(O)c2c3c1C(=O)[C@@H]1C4=C(C(=O)c5cn(CCO)c(=O)c6c(O)cc(C)c4c56)[C@@]3(COC2=O)[C@H]1O,IC50,[1],> 40 µM
same,IC50,[2],> 40 µM
COC(=O)C[C@@H]1OC(=O)c2c(O)cc(C)c3c4c(c(O)c1c23)[C@]12COC(=O)c3c(O)cc(C)c(c31)C(=O)[C@H]4[C@@H]2OC(C)=O,IC50,[1],12.8 µM
same,IC50,[2],8.6 µM
CC(=O)O[C@H]1[C@@H]2C(=O)c3c(C)cc(O)c4c3[C@@]1(COC4=O)C1=C2c2c(C)cc(O)c3c2C(C1=O)C1CCCN1C3=O (stereo not given in full),IC50,[1],> 40 µM
same,IC50,[2],> 40 µM
Cc1cc(O)c2c3c1C(=O)[C@@H]1c4c(c(O)c5c6c(c(O)cc(C)c46)C(=O)OC5)[C@@]3(COC2=O)[C@H]1O,IC50,[1],> 40 µM
same,IC50,[2],> 40 µM
CO[C@@H]1N(CCO)C(=O)c2c(O)cc(C)c3c2[C@]1(O)C(=O)C1=C3[C@H]2C(=O)c3c(C)cc(O)c4c3[C@]1(COC4=O)[C@H]2O,Activity,[3],0.1%
same,Activity,[4],23.4%
same,Activity,[5],75.9%
same,Activity,[6],39.5%
same,Activity,[7],60.5%
same,Activity,[8],18.1%
same,Activity,[9],0%
same,Activity,[10],0%
same,Activity,[11],38.8%
same,Activity,[12],0%
same,Activity,[13],0%
same,Activity,[14],61.2%
same,IC50,[1],9.3 µM
same,Activity,[15],0%
same,Activity,[16],0%
same,Activity,[17],76.6%
same,Activity,[18],0%
same,Activity,[19],77.2%
same,Activity,[20],21.3%
same,Activity,[21],76%
same,Activity,[22],4.6%
same,Activity,[23],2.5%
same,Activity,[24],0%
same,Activity,[25],24.1%
same,Activity,[26],0.3%
same,IC50,[2],2.1 µM
Cc1cc(O)c2c3c1C(=O)[C@@H]1c4c(c(O)c5c6c(c(O)cc(C)c46)C(=O)OC5=O)[C@@]3(COC2=O)[C@H]1O,IC50,[1],> 40 µM
same,IC50,[2],> 40 µM
CC(=O)O[C@H]1[C@@H]2C(=O)c3c(C)cc(O)c4c3[C@@]1(COC4=O)c1c(O)cc3cc(O)cc(C)c3c12,IC50,[1],> 40 µM
same,IC50,[2],> 40 µM
